Data as given in patent US7714150B2, “Aminoalkyl-amidomethyl-substituted 2-(4-sulphonylamino)-3-hydroxy-3,4-dihydro-2H-chroman-6-yl derivatives” (Solvay Pharmaceuticals GmbH, priority 2005, dated 2010).

Experiments:
[1] = test system: left atrium of rats' hearts; assay: Functional refractory period prolongation on isolated left atria of rats' hearts in vitro; design: species or system rat
Protocol: In this test model it is determined to what extent the Kv1.5-blocking substances of Formula I result in a prolongation of the functional refractory period in the left atrium of rats. The refractory period is the minimum possible elapsed time between the basic stimulus and additional stimulus in which a renewed contraction can be triggered. The extent of the prolongation of the functional refractory period is a measurement of the antiarrhythmic effectiveness of the substances according to the invention. The functional refractory period is determined by testing on the electrically stimulated preparation at what elapsed time from the preceding contraction a renewed contraction can be triggered by additional electrical stimuli.
The hearts were removed from freshly sacrificed rats (Sprague-Dawley, Charles-River, Germany). The left atria were isolated and fastened to force transducers in a temperature-controlled (30° C.), gasified (O2 95%, CO2 5%) organ bath which was filled with modified Tyrode solution (all values in mM: NaCl 137; KCl 2.7; CaCl2 1.8; MgCl2 0.8; NaHCO3 11.9; NaH2PO4 0.6; glucose 5). In order to trigger regular contractions, the preparations were electrically stimulated (rectangular pulses, pulse magnitude 3.5× threshold stimulus, pulse width 1.5 ms, frequency 1 Hz). Initially, the initial value of the functional refractory period was determined by applying extra pulses in addition to the basic stimulus, the elapsed time from the preceding basic stimulus being shortened until no further additional contraction could be triggered. Then the cumulative addition of increasing concentrations (0.1-32 μM) of the substances of Formula I took place at intervals of 20 min. each, the refractory period being determined again in each case 18 min. after the addition had taken place. Before the measurement, stock solutions of the test substances (3.2 and 0.32 mM in 100% DMSO) were prepared. In order to achieve the desired final concentrations of the substances (0.1-32 μM) in the organ bath (volume 25 or 100 ml), corresponding volumes of these stock solutions were then poured into the organ bath.
In each case the prolongation of the functional refractory period (FRP) in the left atrium of the rats' hearts in milliseconds observed after the addition of 10 or 32 μM of the respective substance of Formula I to the atrial preparations was given as characteristic variable.

Kv1.3-potassium channel = target: T1, Kv1.3-potassium channel (Homo sapiens, UniProt P22001); assay: Kv1.3-potassium channel-blocking effect in vitro (membrane potential-sensitive dye fluorescence in transfected CHO cells); type: cell-based; conditions: 10 μM test substance; CHO cells transfected with Kv1.3; relative to margatoxin
T1 construct: expressed in transfected cells; host or cells: CHO (Chinese hamster ovary) cells, stably transfected with a Kv1.3 plasmid
From the text: In this test model, known ovary cells of the Chinese hamster (=CHO) are used which are stably transfected with the Kv1.3-potassium channel The blockade of the cell-inherent Kv1.3-potassium channel activity in the transfected cells is accompanied by a positive shift in the membrane potential from approx. −40 mV to −30 mV, whereas in the wild-type CHO cells investigated in parallel no significant shift in the membrane potential is triggered. A change in the membrane potential is thus connected to the reduction in the Kv1.3-potassium channel activity. By blocking the Kv1.3-potassium channels e.g. with substances of Formula I and the resulting change in the membrane potential, an accumulation of a membrane potential-sensitive fluorescent dye in intracellular compartments of the ovary cells and ultimately increasing fluorescence occurs. The change in the membrane potential of the ovary cells is therefore measured indirectly via the increase in fluorescence of the membrane potential-sensitive dyes.
The cells were transfected with the Kv1.3 plasmid in known manner with a commercially obtainable transfection reagent (DMRIE-C from Gibco BRL, Germany). The successful transfection was verified by means of immunofluorescence and by “patch-clamp” investigations of the potassium ion current. The fluorescence measurements were performed on a Tecan Safire fluorescence reader from Tecan, Germany. In each case, the increase in the fluorescent intensity caused by the blockade of the Kv1.3-potassium channels in the ovary cells with substances of Formula I in a concentration of 10 μM was determined as characteristic variable. The increase in the fluorescent intensity was given in each case in percent (%) compared with an increase in the fluorescent intensity caused by the reference substance margatoxin. Margatoxin is known as a selective Kv1.3-potassium channel blocker (see e.g. M. Garcia-Calvo et al., J. Biol. Chem. 268 (1993) 18866-18874).

T1 sequence (P22001 whole entry): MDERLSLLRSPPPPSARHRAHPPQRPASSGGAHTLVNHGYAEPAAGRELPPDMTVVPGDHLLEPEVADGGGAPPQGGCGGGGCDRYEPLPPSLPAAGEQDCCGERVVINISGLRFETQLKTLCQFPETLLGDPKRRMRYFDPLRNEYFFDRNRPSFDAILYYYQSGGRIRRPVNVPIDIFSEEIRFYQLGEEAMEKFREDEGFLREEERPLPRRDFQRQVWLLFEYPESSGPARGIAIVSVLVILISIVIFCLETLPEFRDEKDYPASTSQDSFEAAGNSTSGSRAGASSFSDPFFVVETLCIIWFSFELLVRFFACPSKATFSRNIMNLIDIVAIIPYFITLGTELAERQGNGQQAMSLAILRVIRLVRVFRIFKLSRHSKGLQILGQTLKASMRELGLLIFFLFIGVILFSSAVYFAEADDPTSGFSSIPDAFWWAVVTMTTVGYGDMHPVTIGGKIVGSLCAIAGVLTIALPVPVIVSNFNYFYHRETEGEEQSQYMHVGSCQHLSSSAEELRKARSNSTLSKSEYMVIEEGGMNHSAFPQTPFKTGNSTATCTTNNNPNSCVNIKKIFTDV

| Compound | FRP prolongation ([1]; 10 μM) | Increase in the fluorescent intensity (% margatoxin) (Kv1.3-potassium channel) | FRP prolongation ([1]; 32 μM) |
| --- | --- | --- | --- |
| CCCc1ccc(S(=O)(=O)N[C@@H]2c3cc(CC(=O)N4CCN(Cc5ccccc5)CC4)ccc3OC(C)(C)[C@H]2O)cc1 [Example 1] | 15 (10 μM) ms | – | – |
| CC(C)CCN([C@@H]1c2cc(CC(=O)NCCN3CCCCC3)ccc2OC(C)(C)[C@H]1O)S(=O)(=O)c1ccc(I)cc1 [Example 3, (3S, 4R)-2-{3-Hydroxy-4-[(4-iodobenzenesulfonyl)-(3-methylbutyl)amino]-2,2-dimethylchroman-6-yl}-N-(2-piperidin-1-ylethyl)acetamide] | 15 (10 μM) ms | – | – |
| CCC(CC)CN([C@@H]1c2cc(CC(=O)N[C@@H]3CCN(Cc4ccccc4)C3)ccc2OC(C)(C)[C@H]1O)S(=O)(=O)c1cccc(OC)c1 [Example 4, (3S, 4R)-N-(1-Benzylpyrrolidin-3R-yl)-2-{4-[(2-Ethylbutyl)-(3-Methoxybenzenesulfonyl)Amino]-3 -Hydroxy-2,2-Dimethylchroman-6-yl}Acetamide] | – | 41.8 % margatoxin | – |
| CCCCN(CC)CCNC(=O)Cc1ccc2c(c1)[C@@H](N(CC(CC)CC)S(=O)(=O)c1ccc(I)cc1)[C@H](O)C(C)(C)O2 [Example 5, (3S, 4R)-N-[2-(Butylethylamino)Ethyl]-2-{4-[(2-Ethylbutyl)-(4-iodobenzenesulfonyl)Amino]-3-Hydroxy-2,2-dimethylchroman-6-yl)Acetamide] | – | 39.8 % margatoxin | – |
| COc1cccc(S(=O)(=O)N(CCC(C)C)[C@@H]2c3cc(CC(=O)NCC4CN(Cc5ccccc5)CCO4)ccc3OC(C)(C)[C@H]2O)c1 (stereo partly drawn) [Example 6] | – | 59.9 % margatoxin | 16 (32 μM) ms |
| Cc1ccc(S(=O)(=O)N(CC2CC2)[C@@H]2c3cc(CC(=O)N4CCN(Cc5ccccc5)CC4)ccc3OC(C)(C)[C@H]2O)cc1 [Example 7, (3S, 4R)-N-{6-[2-(4-Benzylpiperazin-1-yl)-2-Oxoethyl]-3-Hydroxy-2,2-Dimethylchroman-4-yl}-N-Cyclopropylmethyl-4-Methylbenzenesulfonamide] | 13 (10 μM) ms | – | – |
| CCc1ccc(S(=O)(=O)N[C@@H]2c3cc(CC(=O)N4CCN(Cc5cccnc5)CC4)ccc3OC(C)(C)[C@H]2O)cc1 [Example 8, 4-Ethyl-N-((3S,4R)-3-Hydroxy-2,2-Dimethyl-6-{2-Oxo-2-[4-(pyridin-3-ylmethyl)piperazin-1-yl]ethyl}-3,4-dihydro-2H-Chromen-4-yl)Benzenesulfonamide] | – | – | 22 (32 μM) ms |
| CCc1ccc(S(=O)(=O)NC2c3cc(CC(=O)N4CCN(Cc5ccccc5)CC4)ccc3OC(C)(C)C2O)cc1 (stereo not drawn) [Example 10, N-{6-[2-(4-benzyl-piperazin-1-yl)-2-oxo-ethyl]-3-hydroxy-2,2-dimethyl-chroman-4-yl}-4-ethyl-benzenesulfonamide] | 24 (10 μM) ms | – | – |
